Experimental findings from ChEMBL document CHEMBL1143447, “Identification of synthetic compounds active against VRE: the role of the lipidated aminoglucose and the structure of glycopeptide binding pocket” (2005) are described below.

Values after ≈ are worked out from the molar mass of the structure shown. Where only a bound is given, the exact number is not on record here.

Assay type in all cases: functional
One assay deals with Streptococcus pyogenes. Put plainly: Minimum inhibitory concentration against 49 Streptococcus pyogenes C203.
Assay [1] deals with Enterococcus faecium. The assay can be described thus: Minimum inhibitory concentration against 569 Enterococcus faecium clin. isolate Van-A.
The subject of assay [2] is Enterococcus faecium. The assay can be described thus: Minimum inhibitory concentration against 568 Enterococcus faecium (isogenic of L569).
Assay [3] concerns Staphylococcus aureus. The assay can be described thus: Minimum inhibitory concentration against 3797 Staphylococcus aureus Clin. isolate VISA.
Assay [4] has as its system Enterococcus faecalis. The assay can be described thus: Minimum inhibitory concentration against 2981 Enterococcus faecalis clin. Isolate Van-A.
Assay [5] relates to Enterococcus faecalis. The assay can be described thus: Minimum inhibitory concentration against 559 Enterococcus faecalis Van-A.
In assay [6] the test system is Enterococcus faecalis. Put plainly: Minimum inhibitory concentration against 559 Enterococcus faecalis (isogenic of L 560).
Assay [7] deals with Enterococcus faecium. The assay can be described thus: Minimum inhibitory concentration against 2215 Enterococcus faecium clin. isolate Van-A.
For assay [8], the system named is Staphylococcus aureus. Put plainly: Minimum inhibitory concentration against 613 Staphylococcus aureus Clin. isolate Met-R.
The subject of assay [9] is Enterococcus faecalis. The assay can be described thus: Minimum inhibitory concentration against 1139 Enterococcus faecalis teico-vanco-sensitive.
Assay [10] deals with Staphylococcus epidermidis. Put plainly: Minimum inhibitory concentration against 147 Staphylococcus epidermidis ATCC 12228.
Assay [11] deals with Staphylococcus aureus. Put plainly: Minimum inhibitory concentration against 3798 Staphylococcus aureus Clin. isolate VISA.
Assay [12] has as its system Staphylococcus aureus. The assay can be described thus: Minimum inhibitory concentration against 819 Staphylococcus aureus Smith MSSA.
In assay [13] the test system is Staphylococcus aureus. Put plainly: Minimum inhibitory concentration against 1400 Staphylococcus aureus Clin. isolate Met-R.

As a reminder, the MIC is the least concentration at which growth counts as inhibited. A low value points to greater potency. Compound `CCCCCCCCCCCC(=O)NC1C(Oc2cc3cc(c2OC)Oc2ccc(cc2[N+](=O)[O-])C[C@@H](NC(=O)[C@H](N)CC(C)C)C(=O)N[C@@H](Cc2ccccc2)C(=O)N[C@H]3[C@H](O)C(=O)O)OC(CO)C(O)C1O.Cl` (stereo partly specified) came in with an MIC against Streptococcus pyogenes of 32 µg/mL.
As to `CCCCCCCCCCCC(=O)NC1C(Oc2cc3cc(c2OC)Oc2ccc(cc2[N+](=O)[O-])C[C@@H](NC(=O)[C@H](N)CC(C)C)C(=O)N[C@@H](Cc2ccccc2)C(=O)N[C@H]3[C@@H](O)C(=O)NCCCC(=O)N[C@@H](C(=O)NCCCN(C)C)c2ccccc2)OC(CO)C(O)C1O.O=C(O)C(F)(F)F` (stereo partly specified), the minimal inhibitory concentration (MIC) was 8 µg/mL with Enterococcus faecium [1]; 16 µg/mL against Enterococcus faecium [2]; 32 µg/mL against Staphylococcus aureus [3]; 32 µg/mL against Enterococcus faecalis [4]; 8 µg/mL against Enterococcus faecalis [5]; 16 µg/mL in the assay with Enterococcus faecalis [6]. Besides, the MIC was determined as 32 µg/mL with Enterococcus faecium [7]; 32 µg/mL against Staphylococcus aureus [8]; 32 µg/mL in the assay on Enterococcus faecalis [9]; 8 µg/mL against Streptococcus pyogenes; 16 µg/mL in assay [10]; 16 µg/mL with Staphylococcus aureus [11].
For `CCCCCCCCCCCC(=O)NC1C(Oc2c(Oc3ccc([N+](=O)[O-])cc3)cc3cc2Oc2ccc(cc2[N+](=O)[O-])C[C@@H](NC(=O)[C@H](N)CC(C)C)C(=O)N[C@@H](Cc2ccccc2)C(=O)N[C@H]3[C@H](O)C(=O)O)OC(CO)C(O)C1O.O=C(O)C(F)(F)F` (stereo partly specified), the MIC in the assay with Enterococcus faecium [1] was determined as 32 µg/mL; in the assay on Enterococcus faecium [2] it was 64 µg/mL; with Staphylococcus aureus [3], 32 µg/mL; against Enterococcus faecalis [5], 8 µg/mL; against Enterococcus faecalis [6], 8 µg/mL; with Enterococcus faecalis [9], 32 µg/mL. In the assay with Streptococcus pyogenes, this compound came in with an MIC of 32 µg/mL.
As for `CC(=O)N[C@@H]1[C@H](Oc2c3cc4cc2Oc2ccc(cc2Cl)[C@@H](O[C@@H]2O[C@@H](CO)[C@@H](O)[C@H](O)[C@@H]2NC(C)=O)[C@@H]2NC(=O)[C@H](NC(=O)[C@@H]4NC(=O)[C@H]4NC(=O)[C@@H](Cc5ccc(c(Cl)c5)O3)NC(=O)[C@H](N)c3ccc(O)c(c3)Oc3cc(O)cc4c3)c3ccc(O)c(c3)-c3c(O[C@H]4O[C@H](CO)[C@@H](O)[C@@H](O)[C@@H]4O)cc(O)cc3[C@@H](C(=O)O)NC2=O)O[C@@H](CO)[C@@H](O)[C@@H]1O`, the minimum inhibitory concentration (MIC) against Staphylococcus aureus [12] was 1 µg/mL (≈ 0.566 µM); in the assay on Staphylococcus aureus [13] it was 1 µg/mL (≈ 0.566 µM); in the assay on Enterococcus faecium [2] it was at most 0.125 µg/mL; with Staphylococcus aureus [3], 16 µg/mL (≈ 9.05 µM); in the assay on Staphylococcus aureus [8] it was 1 µg/mL (≈ 0.566 µM); in the assay on Streptococcus pyogenes it was at most 0.125 µg/mL. The MIC in assay [10] worked out at 2 µg/mL (≈ 1.13 µM); against Staphylococcus aureus [11] it was 4 µg/mL (≈ 2.26 µM).
Regarding `CN[C@H](CC(C)C)C(=O)N[C@H]1C(=O)N[C@@H](CC(N)=O)C(=O)N[C@H]2C(=O)N[C@H]3C(=O)N[C@H](C(=O)N[C@H](C(=O)O)c4cc(O)cc(O)c4-c4cc3ccc4O)[C@H](O)c3ccc(c(Cl)c3)Oc3cc2cc(c3O[C@@H]2O[C@H](CO)[C@@H](O)[C@H](O)[C@H]2O[C@H]2C[C@](C)(N)[C@H](O)[C@H](C)O2)Oc2ccc(cc2Cl)[C@H]1O` [VANCOMYCIN], the MIC against Staphylococcus aureus [12] was 1 µg/mL (≈ 0.69 µM); with Staphylococcus aureus [13], 1 µg/mL (≈ 0.69 µM); in the assay with Enterococcus faecium [2] it was 2 µg/mL (≈ 1.38 µM); with Staphylococcus aureus [3], 8 µg/mL (≈ 5.52 µM); against Enterococcus faecalis [6] it was 1 µg/mL (≈ 0.69 µM); with Staphylococcus aureus [8], 1 µg/mL (≈ 0.69 µM). Also, the MIC is 2 µg/mL (≈ 1.38 µM) against Enterococcus faecalis [9], at most 0.125 µg/mL with Streptococcus pyogenes, 1 µg/mL (≈ 0.69 µM) in [10] and 8 µg/mL (≈ 5.52 µM) against Staphylococcus aureus [11].
For the compound `CCCCCCCCCCCC(=O)NC1C(Oc2cc3cc(c2OC)Oc2ccc(cc2[N+](=O)[O-])C[C@@H](NC(=O)[C@H](N)CC(C)C)C(=O)N[C@@H](Cc2ccccc2)C(=O)N[C@H]3[C@@H](O)C(=O)O)OC(CO)C(O)C1O.Cl` (stereo partly specified), the minimum inhibitory concentration (MIC) in the assay with Enterococcus faecium [1] came out at 32 µg/mL; with Enterococcus faecium [2] it was 64 µg/mL; against Enterococcus faecalis [4], 32 µg/mL; with Enterococcus faecalis [5], 8 µg/mL; against Enterococcus faecalis [6], 8 µg/mL; in the assay with Enterococcus faecium [7] it was 32 µg/mL. For the same compound, the MIC against Enterococcus faecalis [9] was 32 µg/mL; in the assay with Streptococcus pyogenes it was 32 µg/mL; in assay [10] it was 64 µg/mL.
Consider `COc1c(Oc2ccc([N+](=O)[O-])cc2)cc2cc1Oc1ccc(cc1[N+](=O)[O-])C[C@@H](NC(=O)[C@H](N)CC(C)C)C(=O)N[C@@H](Cc1ccccc1)C(=O)N[C@H]2[C@@H](O)C(=O)O.Cl`, for which the MIC against Staphylococcus aureus [3] is 16 µg/mL; against Enterococcus faecalis [5], 16 µg/mL; in the assay with Enterococcus faecalis [6], 16 µg/mL; in the assay with Enterococcus faecalis [9], 64 µg/mL; against Streptococcus pyogenes it was 16 µg/mL.
Regarding `CC(C)C[C@@H](N)C(=O)N[C@@H]1Cc2ccc(c([N+](=O)[O-])c2)Oc2cc(cc(Oc3ccc([N+](=O)[O-])cc3)c2O)[C@H]([C@@H](O)C(=O)O)NC(=O)[C@H](Cc2ccccc2)NC1=O.Cl`, the MIC against Staphylococcus aureus [3], in the assay with Enterococcus faecalis [5], with Enterococcus faecalis [6] and with Streptococcus pyogenes was 64 µg/mL throughout.
